Measured values taken from ChEMBL document CHEMBL5233229, “Recent advances in the development of ubiquitin-specific-processing protease 7 (USP7) inhibitors” (Eur J Med Chem, 2020).

Columns and labels:
[1] = molecular target: T1, Ubiquitin carboxyl-terminal hydrolase 47 (Homo sapiens, UniProt Q96K76); assay: Inhibition of USP47 (unknown origin)
T1 sequence (Q96K76 whole entry): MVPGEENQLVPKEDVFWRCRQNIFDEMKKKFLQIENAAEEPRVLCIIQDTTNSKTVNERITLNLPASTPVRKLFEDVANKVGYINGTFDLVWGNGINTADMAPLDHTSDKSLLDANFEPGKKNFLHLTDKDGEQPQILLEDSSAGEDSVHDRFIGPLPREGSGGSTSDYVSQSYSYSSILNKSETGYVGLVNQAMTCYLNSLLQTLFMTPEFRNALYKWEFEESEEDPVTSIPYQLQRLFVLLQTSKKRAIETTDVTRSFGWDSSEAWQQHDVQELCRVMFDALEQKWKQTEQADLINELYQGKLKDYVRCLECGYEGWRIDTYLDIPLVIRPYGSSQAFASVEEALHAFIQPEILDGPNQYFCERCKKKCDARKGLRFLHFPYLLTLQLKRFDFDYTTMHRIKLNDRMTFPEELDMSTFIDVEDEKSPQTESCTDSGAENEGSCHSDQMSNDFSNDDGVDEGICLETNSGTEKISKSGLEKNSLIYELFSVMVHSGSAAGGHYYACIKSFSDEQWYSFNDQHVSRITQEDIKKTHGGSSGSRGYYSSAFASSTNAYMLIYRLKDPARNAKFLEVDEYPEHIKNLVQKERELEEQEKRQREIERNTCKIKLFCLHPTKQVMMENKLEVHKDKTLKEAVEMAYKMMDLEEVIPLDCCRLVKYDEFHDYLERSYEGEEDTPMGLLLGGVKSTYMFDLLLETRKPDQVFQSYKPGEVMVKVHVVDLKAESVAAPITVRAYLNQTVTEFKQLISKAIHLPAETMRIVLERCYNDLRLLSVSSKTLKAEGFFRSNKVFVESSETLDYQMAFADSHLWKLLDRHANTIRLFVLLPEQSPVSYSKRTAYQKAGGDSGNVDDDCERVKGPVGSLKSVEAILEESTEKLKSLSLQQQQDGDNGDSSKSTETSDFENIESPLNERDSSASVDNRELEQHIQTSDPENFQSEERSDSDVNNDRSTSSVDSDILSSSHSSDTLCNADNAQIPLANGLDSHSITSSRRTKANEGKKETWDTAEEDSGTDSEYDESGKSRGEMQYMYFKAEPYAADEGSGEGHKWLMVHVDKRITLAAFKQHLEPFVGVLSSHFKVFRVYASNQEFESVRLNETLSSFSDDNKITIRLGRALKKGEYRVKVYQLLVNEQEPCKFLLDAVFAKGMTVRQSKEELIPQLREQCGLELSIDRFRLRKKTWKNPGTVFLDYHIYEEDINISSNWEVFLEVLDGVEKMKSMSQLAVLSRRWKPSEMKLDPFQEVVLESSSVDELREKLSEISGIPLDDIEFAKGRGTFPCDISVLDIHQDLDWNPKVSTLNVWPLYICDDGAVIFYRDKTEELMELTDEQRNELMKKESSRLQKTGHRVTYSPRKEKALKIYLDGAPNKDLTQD

[2] = molecular target: T2, Ubiquitin carboxyl-terminal hydrolase 7 (Homo sapiens, UniProt Q93009); assay: Inhibition of USP7 (unknown origin) by Ub-PLA2 assay
[3] = molecular target: T2, Ubiquitin carboxyl-terminal hydrolase 7; assay: Inhibition of human USP7 using ubiquitin-Rh110 as substrate incubated for 30 mins by Fluorometric plate reader analysis
[4] = molecular target: T2, Ubiquitin carboxyl-terminal hydrolase 7; assay: Inhibition of human USP7 using human N-terminal GST-tagged UBA52 as substrate preincubated for 10 mins followed by substrate addition measured after 45 mins by coomassie brilliant blue staining-based SDS-PAGE analysis
HCT-116 = assay: Anticancer activity against human HCT-116 cells assessed as cell growth inhibition incubated for 6 days by MTT assay; type: functional; settings: HCT-116, 144 h, time 6 day, read-out: LD50 (the source's name)
[5] = Inhibition of USP2a (unknown origin); set-up: species or system Homo sapiens
[6] = molecular target: T2, Ubiquitin carboxyl-terminal hydrolase 7; assay: Inhibition of human USP7 using Ub-AMC as substrate

T2 sequence (Q93009 whole entry): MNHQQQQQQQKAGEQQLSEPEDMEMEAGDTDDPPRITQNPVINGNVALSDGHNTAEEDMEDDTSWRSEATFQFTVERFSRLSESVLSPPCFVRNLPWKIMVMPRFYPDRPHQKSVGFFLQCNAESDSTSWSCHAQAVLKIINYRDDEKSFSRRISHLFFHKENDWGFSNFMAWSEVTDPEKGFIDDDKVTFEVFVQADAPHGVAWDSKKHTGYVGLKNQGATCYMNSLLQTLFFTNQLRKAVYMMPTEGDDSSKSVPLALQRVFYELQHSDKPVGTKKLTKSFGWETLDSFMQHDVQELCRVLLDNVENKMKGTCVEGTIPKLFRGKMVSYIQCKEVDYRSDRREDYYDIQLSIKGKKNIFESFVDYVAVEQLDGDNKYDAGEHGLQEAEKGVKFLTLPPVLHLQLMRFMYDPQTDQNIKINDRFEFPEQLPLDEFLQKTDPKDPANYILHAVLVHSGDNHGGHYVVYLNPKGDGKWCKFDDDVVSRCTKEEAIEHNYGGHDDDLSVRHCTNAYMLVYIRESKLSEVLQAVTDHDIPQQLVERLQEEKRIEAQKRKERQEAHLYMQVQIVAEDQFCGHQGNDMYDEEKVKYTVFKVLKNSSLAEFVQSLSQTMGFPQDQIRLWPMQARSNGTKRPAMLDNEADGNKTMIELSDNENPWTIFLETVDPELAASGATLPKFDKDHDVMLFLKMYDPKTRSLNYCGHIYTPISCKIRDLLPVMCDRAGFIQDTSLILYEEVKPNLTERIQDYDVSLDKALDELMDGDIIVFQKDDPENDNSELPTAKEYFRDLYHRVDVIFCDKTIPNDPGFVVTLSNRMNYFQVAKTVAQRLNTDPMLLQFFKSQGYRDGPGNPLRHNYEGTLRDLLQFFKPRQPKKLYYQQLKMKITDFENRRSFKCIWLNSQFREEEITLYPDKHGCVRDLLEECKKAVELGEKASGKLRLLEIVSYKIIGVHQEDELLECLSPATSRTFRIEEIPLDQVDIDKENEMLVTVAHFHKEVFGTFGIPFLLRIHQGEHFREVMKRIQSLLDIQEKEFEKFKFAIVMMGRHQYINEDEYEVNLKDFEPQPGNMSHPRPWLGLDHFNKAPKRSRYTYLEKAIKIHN

N#Cc1nc2c(nc1C#N)-c1ccccc1C2=O
IC50 [1]: 3.5 µM

CC(=O)c1cc([N+](=O)[O-])c(Sc2ccccc2Cl)s1
IC50 [2]: 12.9 µM

C[C@@]12CCCc3c(CCO)oc(c31)C(=O)c1cc3c(cc12)C(=O)C=CC3=O
IC50 [3]: 1.4 µM

CC(=O)O[C@H]1CC[C@]2(C)[C@H]3CC=C4[C@@H]5[C@@H](C)[C@H](C)CC[C@]5(C(=O)O)CC[C@@]4(C)[C@]3(C)CC[C@H]2C1(C)C [O-ACETYLURSOLIC ACID]
IC50 [4]: > 50 µM

C[C@H](CC(=O)N1CCOCC1)[C@H]1CC[C@H]2[C@@H]3CC[C@@H]4C[C@H](O)CC[C@]4(C)[C@H]3CC[C@]12C
CC50 (HCT-116): 8.2 µM
IC50 [5]: > 100 µM

CC(=O)O[C@@H]1CC[C@@]2(C)[C@H](CC[C@@H]3[C@@H]2CC[C@]2(C)[C@@H]([C@H](C)CC(=O)O)CC[C@@H]32)C1
CC50 (HCT-116): 23.2 µM
IC50 [5]: 5.8 µM

C[C@@]12CCCc3coc(c31)C(=O)c1cc3c(cc12)C(=O)C=C(C1=CC(=O)c2cc4c(cc2C1=O)C(=O)c1occ2c1[C@@]4(C)CCC2)C3=O
IC50 [3]: 0.35 µM

COc1nc2c(nc1C#N)C(=O)c1ccccc1-2
IC50 [1]: > 100 µM

C[C@@]12CCCc3coc(c31)C(=O)c1cc3c(cc12)C(=O)C=C(c1cc(OS(=O)(=O)O)c2cc4c(cc2c1O)C(=O)c1occ2c1[C@@]4(C)CCC2)C3=O
IC50 [3]: 1.2 µM

C[C@@]12CCCc3coc(c31)C(=O)c1cc3c(cc12)CC1=C2N(CCS1(=O)=O)[C@H](O)C[C@@]23O
IC50 [3]: > 5 µM

C[C@@]12CCC(=O)c3coc(c31)C(=O)c1cc3c(cc12)C(=O)C=CC3=O [HELENAQUINONE]
IC50 [3]: 1.3 µM

CC1(C)CC[C@]2(C(=O)O)CC[C@]3(C)C(=CC[C@@H]4[C@@]5(C)CC[C@H](O)C(C)(C)[C@@H]5CC[C@]43C)[C@@H]2C1 [OLEANOLIC_ACID]
IC50 [4]: 12.5 µM

COCCOc1nc2c(nc1C#N)C(=O)c1ccccc1-2
IC50 [1]: > 100 µM

C[C@H](CC(=O)O)[C@H]1CC[C@H]2[C@@H]3[C@H](O)C[C@@H]4C[C@H](O)CC[C@]4(C)[C@H]3C[C@H](O)[C@]12C
CC50 (HCT-116): > 50 µM

N#Cc1nc2c(nc1C#N)C1(OCCO1)c1ccccc1-2
IC50 [6]: > 100 µM
IC50 [1]: > 100 µM

N#Cc1nc2c(nc1N1CCC(F)(F)CC1)-c1ccccc1C2=O
IC50 [1]: > 100 µM

C[C@H](CC(=O)NCCS(=O)(=O)O)[C@H]1CC[C@H]2[C@@H]3[C@H](O)C[C@@H]4C[C@H](O)CC[C@]4(C)[C@H]3C[C@H](O)[C@]12C
CC50 (HCT-116): > 50 µM

CC1(C)CC[C@]2(C(=O)O)CC[C@]3(C)C(=CC[C@@H]4[C@@]5(C)CC[C@H](O)[C@@](C)(CO)[C@@H]5CC[C@]43C)[C@@H]2C1 [HEDERAGENIN]
IC50 [4]: 33.5 µM

C[C@@]12CCCc3coc(c31)C(=O)c1cc3c4c(cc(OS(=O)(=O)O)c3cc12)[C@@]12CCC[C@@]3(C)c5cc6c(OS(=O)(=O)O)ccc(O)c6cc5C(=O)[C@@](O)(OC1)[C@@]23O4
IC50 [3]: > 5 µM

C[C@H](C1=CC(=O)c2cc3c(cc2C1=O)C(=O)c1occ2c1[C@@]3(C)CCC2)C1=CC(=O)c2cc3c(cc2C1=O)[C@]1(C)CCCc2coc(c21)C3=O
IC50 [3]: 0.49 µM

CC(=O)c1cc([N+](=O)[O-])c(Sc2ccc(Cl)cc2Cl)s1
IC50 [2]: 6.5 µM

N#Cc1nc2c(nc1N)-c1ccccc1C2=O
IC50 [1]: > 100 µM

C=C(C)[C@@H]1CC[C@]2(C(=O)O)CC[C@]3(C)[C@H](CC[C@@H]4[C@@]5(C)CC[C@H](O)C(C)(C)[C@@H]5CC[C@]43C)[C@H]2C1
IC50 [4]: 33.3 µM

CC(O)c1cc([N+](=O)[O-])c(Sc2ccc(Cl)cc2Cl)s1 (stereo not drawn)
IC50 [2]: 20.1 µM

C[C@@]12CCCc3coc(c31)C(=O)c1cc3c(cc12)[C@@]1(O)C[C@@H](O)N2CCS(=O)(=O)C(=C21)C3=O
IC50 [3]: > 5 µM

N#CNc1nc2c(nc1C#N)C(=O)c1ccccc1-2
IC50 [1]: > 100 µM

CC(=O)c1cc([N+](=O)[O-])c(Sc2cc(Cl)cc(Cl)c2)s1
IC50 [2]: 6.4 µM

C[C@H]1[C@H](C)CC[C@]2(C(=O)O)CC[C@]3(C)C(=CC[C@@H]4[C@@]5(C)C[C@@H](O)[C@H](O)C(C)(C)[C@@H]5CC[C@]43C)[C@H]12 [COROSOLIC ACID]
IC50 [4]: 22.7 µM

CCc1cc([N+](=O)[O-])c(Sc2cccc(Cl)c2Cl)s1
IC50 [2]: > 50 µM

C[C@@]12CCCc3coc(c31)C(=O)c1cc3c(cc12)[C@]1(O)C[C@H](O)N2CCS(=O)(=O)C(=C21)C3=O
IC50 [3]: > 5 µM

CC(=O)c1cc([N+](=O)[O-])c(Sc2cccc(Cl)c2)s1
IC50 [2]: 7 µM

CCCCc1cc([N+](=O)[O-])c(Sc2ccc(Cl)cc2Cl)s1
IC50 [2]: 13.9 µM

CC1(C)CC[C@]2(C(=O)O)[C@H](O)C[C@]3(C)C(=CC[C@@H]4[C@@]5(C)C[C@H](O)[C@H](O)[C@@](C)(CO)[C@@H]5CC[C@]43C)[C@@H]2C1
IC50 [4]: > 50 µM

C[C@@]12CCCc3coc(c31)Cc1cc3c(cc12)C(=O)C(C1=CC(=O)c2cc4c(cc2C1=O)C(=O)c1occ2c1[C@@]4(C)CCC2)=CC3=O
IC50 [3]: 0.47 µM

C[C@@]12CCCc3coc(c31)C(=O)c1cc3c(cc12)CC1=C2N(CCS1(=O)=O)[C@@H](O)C[C@]23O
IC50 [3]: > 5 µM

CC1(C)CC[C@]2(C(=O)O)CC[C@]3(C)C(=CC[C@@H]4[C@@]5(C)C[C@H](O)[C@H](O)[C@@](C)(CO)[C@@H]5CC[C@]43C)[C@@H]2C1
IC50 [4]: > 50 µM

CC1(C)CCC2(C(=O)O)CCC3=C([C@@H](CCl)C[C@@H]4[C@@]5(C)C[C@H](O)[C@H](O)[C@](C)(C(=O)O)[C@@H]5CC[C@]34C)[C@@H]2C1 (single isomer, unassigned)
IC50 [4]: > 50 µM

C[C@H]1[C@H](C)CC[C@]2(C(=O)O)CC[C@]3(C)C(=CC[C@@H]4[C@@]5(C)C[C@@H](O)[C@H](O)[C@@](C)(CO)[C@@H]5CC[C@]43C)[C@H]12 [ASIATIC ACID]
IC50 [4]: > 50 µM

N#Cc1nc2c(nc1C#N)-c1ccc(O)cc1C2=O
IC50 [1]: 66 µM

CC1(C)[C@H](O)CC[C@]2(C)[C@H]3C(=O)C=C4[C@@H]5C[C@@](C)(C(=O)O)CC[C@]5(C)CC[C@]4(C)[C@@]3(C)CC[C@@H]12
IC50 [4]: > 50 µM

C[C@@]12CCCc3coc(c31)C(=O)c1cc3c(cc12)C(=O)C=C([C@]12CCC[C@@]4(C)c5cc6c(OS(=O)(=O)O)ccc(O)c6cc5C(=O)O[C@]14C(=O)OC2)C3=O
IC50 [3]: 2 µM

CC(=O)c1cc([N+](=O)[O-])c(Sc2ccc(Cl)cc2)s1
IC50 [2]: 11.8 µM

COC(=O)[C@]12CC[C@@H](C)[C@H](C)[C@H]1C1=CC[C@@H]3[C@@]4(C)CC[C@H](O)C(C)(C)[C@@H]4CC[C@@]3(C)[C@]1(C)CC2 [METHYL URSOLATE]
IC50 [4]: > 50 µM

C=C(C)[C@@H]1CC[C@]2(C)CC[C@]3(C)[C@H](CC[C@@H]4[C@@]5(C)CC[C@H](O)C(C)(C)[C@@H]5CC[C@]43C)[C@H]2C1
IC50 [4]: > 50 µM

N#Cc1nc2c(nc1C#N)-c1ccc(F)cc1C2=O
IC50 [1]: 4.3 µM
